{"source": "patent US20120172450A1", "about": "“USE OF JASMONATE FOR IMPROVING SKELETAL MUSCLE FUNCTION” (BROADY HEALTH SCIENCES, LLC, priority 2010, published 2012)", "system": "skeletal muscle fatigue and performance", "assay": "Effect of Jasmone on Muscle Fatigue and Performance in exercising subjects", "type": "in vivo, human", "protocol": "Subjects ranged from 43 to 72 years old. Subjects took 50-100 micrograms of jasmone once a day. All subjects were currently performing various exercise programs. Individual data was collected as to the changes that were noted upon jasmone supplementation.\nSubject one, was a person who ran and trained with weights on a regular basis. They took a simplified stress test measuring time to maximum heart rate on treadmill exertion. Pre-Jasmone time on treadmill to target heart rate was 9 minutes. Two weeks after taking Jasmone, stress test results improved to 11 minutes. After 4 weeks of jasmone protocol stress test time increased to 15 min. In addition, after 3 weeks they reported increased weight repetitions by 15 percent and within four weeks increased push ups by 20 percent with same level of exertion as before.\nSubject two, was a person who ran on a regular basis. Prior to Jasmone, full exertion exercise routine consisted of approximately 2 miles at 4.5 miles per hour. After two weeks of Jasmone was able to increase routine to running time to 2.5 miles without difficulty.\nSubject three (person one), was a person who biked on a regular basis. After 4 weeks of taking Jasmone they increased cycling distance by 50 percent and speed by 10 percent.\nSubject four, a person reported who trained with weights on a regular basis, increased weight repetitions of 25% after 4 weeks of taking Jasmone. Subject four, a person regularly performed an exercise routine including weight machines. Prior to taking Jasmone, on a particular machine, they were able to perform 12 repetitions at 60 pds of weight. Two weeks after taking Jasmone was able to increase weight to 80 and repetitions increased to 14.\nSubject five, was a person, who regularly exercised but due to travel was unable to maintain normal exercise routine during trial. […] Two examples of this include running through an airport carrying luggage and another running in extreme heat."}
{"smiles": "CC/C=C\\CC1=C(C)CCC1=O", "note": "[Jasmone, jasmone]", "values": [{"measurement": "self-reported running ability", "setting": "Subject five, normal exercise routine not maintained during trial", "result": "increased ability to run far and fast without getting winded"}, {"measurement": "increase in weight repetitions", "setting": "Subject four, after 4 weeks of taking Jasmone", "result": 25, "unit": "%"}, {"measurement": "self-reported strength and endurance", "setting": "Subject four, after four weeks of Jasmone", "result": "felt increased strength and endurance"}, {"measurement": "repetitions on weight machine", "setting": "Subject four, two weeks after taking Jasmone, prior 12 repetitions", "result": 14}, {"measurement": "weight on weight machine", "setting": "Subject four, two weeks after taking Jasmone, prior 60 pds", "result": 80, "unit": "pds"}, {"measurement": "increase in weight repetitions", "setting": "Subject one, after 3 weeks, same level of exertion as before", "result": 15, "unit": "%"}, {"measurement": "stress test time (time on treadmill to target heart rate)", "setting": "Subject one, after 4 weeks of jasmone, pre-Jasmone 9 minutes", "result": 15, "unit": "min"}, {"measurement": "time on treadmill to target heart rate (simplified stress test)", "setting": "Subject one, two weeks after taking Jasmone, 50-100 micrograms once a day, pre-Jasmone 9 minutes", "result": 11, "unit": "min"}, {"measurement": "increase in push ups", "setting": "Subject one, within four weeks, same level of exertion as before", "result": 20, "unit": "%"}, {"measurement": "increase in cycling distance", "setting": "Subject three (person one), after 4 weeks of taking Jasmone", "result": 50, "unit": "%"}, {"measurement": "increase in cycling speed", "setting": "Subject three, after 4 weeks of taking Jasmone", "result": 10, "unit": "%"}, {"measurement": "workout fatigue", "setting": "Subject two, after additional two weeks", "result": "workout fatigue continued to improve"}, {"measurement": "running routine distance", "setting": "Subject two, after two weeks of Jasmone, prior approximately 2 miles at 4.5 miles per hour", "result": 2.5, "unit": "miles"}]}
